For series [1], the target named is T1, wild type AXL (wtAXL) receptor tyrosine kinase (Homo sapiens, UniProt P30530).
T1 construct: WtAXL cDNA was cloned into vector pLXSN(ESK) and transfected into Phoenix E packaging cells; expressed in transfected cells; host or cells: NIH3T3 N7 mouse fibroblasts, retrovirally infected (clone 22)
T1 sequence (P30530 26-894): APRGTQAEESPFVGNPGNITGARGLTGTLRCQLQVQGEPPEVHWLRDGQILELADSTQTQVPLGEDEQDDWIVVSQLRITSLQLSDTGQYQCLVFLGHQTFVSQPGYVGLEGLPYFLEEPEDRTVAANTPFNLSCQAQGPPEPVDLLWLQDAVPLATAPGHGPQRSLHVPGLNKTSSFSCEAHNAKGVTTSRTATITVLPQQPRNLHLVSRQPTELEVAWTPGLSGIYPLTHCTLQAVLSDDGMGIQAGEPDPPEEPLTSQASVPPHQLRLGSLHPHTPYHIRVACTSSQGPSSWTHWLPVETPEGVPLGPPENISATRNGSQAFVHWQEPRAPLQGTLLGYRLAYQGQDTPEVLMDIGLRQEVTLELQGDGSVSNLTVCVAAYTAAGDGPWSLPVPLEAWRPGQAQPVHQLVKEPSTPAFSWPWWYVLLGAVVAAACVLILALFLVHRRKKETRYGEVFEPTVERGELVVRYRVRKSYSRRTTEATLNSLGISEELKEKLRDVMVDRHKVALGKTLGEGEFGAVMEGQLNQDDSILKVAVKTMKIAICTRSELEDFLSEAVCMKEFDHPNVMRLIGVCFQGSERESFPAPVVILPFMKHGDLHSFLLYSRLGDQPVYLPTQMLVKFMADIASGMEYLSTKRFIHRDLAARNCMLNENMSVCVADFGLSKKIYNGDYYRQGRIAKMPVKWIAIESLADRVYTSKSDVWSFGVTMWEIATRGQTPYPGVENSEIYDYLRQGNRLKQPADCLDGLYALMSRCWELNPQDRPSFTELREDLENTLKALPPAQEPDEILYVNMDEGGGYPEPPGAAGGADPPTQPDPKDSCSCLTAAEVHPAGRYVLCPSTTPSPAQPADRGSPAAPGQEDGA
As to the kind of experiment: NIH-3T3-AXL cellular tyrosine kinase assay (inhibition of AXL phosphorylation). The series is classed as cell-based. As to conditions: AXL phosphorylation in NIH-3T3-AXL (clone 22) cells, serum-depleted, 2 h with compound, immunoprecipitation / anti-phosphotyrosine blot. Put shortly: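 Compound inhibition of AXL autophosphorylation was read by 4G10 immunoblot after anti-AXL immunoprecipitation from lysates. Cells: NIH3T3 lines stably carrying retroviral wild-type human AXL, treated 2 h with compound dilution series.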

Broadly, the IC50 is the concentration that inhibits the measured activity by half. One may read the melting point as the temperature, or range, at which the solid turns liquid.

Molecule `COc1cc2nccc(Oc3ccc(NS(=O)(=O)c4cccc(-c5ccccc5)c4)cc3)c2cc1OC` [Example A86, Biphenyl-3-sulfonic acid [4-(6,7-dimethoxy-quinolin-4-yloxy)-phenyl]-amide] returned a melting point of 197 to 200 °C. The IC50 in series [1] was greater than 1000 nM.
The matching figures for `CCn1cc(S(=O)(=O)Nc2ccc(Oc3ccnc4cc(OC)c(OC)cc34)cc2F)cn1` [Example A31, 1-Ethyl-1H-pyrazole-4-sulfonic acid [4-(6,7-dimethoxy-quinolin-4-yloxy)-2-fluoro-phenyl]-amide]: 211 to 213 °C and greater than 10000 nM.
In the case of `COc1cc2nccc(Oc3ccc(NS(=O)(=O)c4cccc(Oc5ccccc5)c4)cc3F)c2cc1OC` [Example A98, N-[4-(6,7-Dimethoxy-quinolin-4-yloxy)-3-fluoro-phenyl]-3-phenoxy-benzenesulfonamide], the melting point lay within 197 to 199 °C. Also, in series [1], the IC50 was 740 nM.
The molecule `Cc1cc(Oc2ccc(NS(=O)(=O)c3ccc(F)cc3F)cc2)c2cc(F)ccc2n1` [Example B12, 2,4-Difluoro-N-[4-(6-fluoro-2-methyl-quinolin-4-yloxy)-phenyl]-benzenesulfonamide] registered a melting point of 179 to 180 °C. Further, the IC50 in series [1] was greater than 10000 nM.
Molecule `COc1cc2c(Oc3ccc(NS(=O)(=O)c4ccccc4OC(F)(F)F)cc3F)ccnc2cc1OCCCN1CCC(C)CC1` [Example D33, N-(3-Fluoro-4-{6-methoxy-7-[3-(4-methyl-piperidin-1-yl)-propoxy]-quinolin-4-yloxy}-phenyl)-2-trifluoromethoxy-benzenesulfonamide] had a melting point of 206 to 208 °C. Also, the IC50 in series [1] turned out to be 68 nM.
Consider `COc1cc2c(Oc3ccc(NS(=O)(=O)c4ccccc4Br)cc3F)ccnc2cc1OCCCN1CCC(C)CC1` [Example D18, 2-Bromo-N-(3-fluoro-4-{6-methoxy-7-[3-(4-methyl-piperidin-1-yl)-propoxy]-quinolin-4-yloxy}-phenyl)-benzenesulfonamide], for which the melting point fell in the range of 184 to 186 °C. Also, in series [1], the IC50 was found to be 151 nM.
The molecule `COc1cc2nccc(Oc3ccc(NS(=O)(=O)c4ccc(Br)cc4OC(F)(F)F)cc3F)c2cc1OC` [Example A146, 4-Bromo-N-[4-(6,7-dimethoxy-quinolin-4-yloxy)-3-fluoro-phenyl]-2-trifluoromethoxy-benzenesulfonamide] came in with a melting point of 226 to 228 °C. In addition, in series [1], the IC50 worked out at 890 nM.
Take `COc1cc2nccc(Oc3ccc(NS(=O)(=O)c4ccc(-c5cnco5)s4)c(F)c3)c2cc1OC` [Example A37, 5-Oxazol-5-yl-thiophene-2-sulfonic acid [4-(6,7-dimethoxy-quinolin-4-yloxy)-2-fluoro-phenyl]-amide]: the melting point fell in the range of 206 to 208 °C. In addition, in series [1], the concentration for half-maximal inhibition (IC50) is greater than 10000 nM.
On to `COc1cc2nccc(Oc3ccc(NS(=O)(=O)c4ccc(OC)c(C(C)(C)C)c4)cc3)c2cc1OC` [Example A70, 3-tert-Butyl-N-[4-(6,7-dimethoxy-quinolin-4-yloxy)-phenyl]-4-methoxy-benzenesulfonamide], for which the melting point fell in the range of 229 to 231 °C. Also, in series [1], the IC50 was greater than 10000 nM.
Molecule `COC(=O)c1sccc1S(=O)(=O)Nc1ccc(Oc2ccnc3cc(OC)c(OC)cc23)cc1F` [Example A9, 3-[4-(6,7-Dimethoxy-quinolin-4-yloxy)-2-fluoro-phenylsulfamoyl]-thiophene-2-carboxylic acid methyl ester] displayed a melting point of 189 to 190 °C. Moreover, the IC50 in series [1] was 3700 nM.
The molecule `COc1cc2nccc(Oc3ccc(NS(=O)(=O)c4ccccc4OC(F)(F)F)cc3)c2cc1OC` [Example A114, N-[4-(6,7-Dimethoxy-quinolin-4-yloxy)-phenyl]-2-trifluoromethoxy-benzenesulfonamide] yielded a melting point of 222 to 223 °C. Moreover, in series [1], the IC50 was 470 nM.

Source of the values: US9206130B2, “Quinoline derivatives as AXL kinase inhibitors” (Max-Planck-Gesellschaft zur Förderung der Wissenschaften …, priority 2008, dated 2015).
